Patent US5498601A, “Platelet aggregation-inhibiting peptides” (Nippon Steel Corporation, priority 1992, dated 1996)
Non-standard residues stand in square brackets, D forms with d. Residues, ends and D or L forms follow the SMILES beside them. No end group written: not given here. *: point of attachment. pGlu = O=C1CC[C@@H](C(=O)O)N1; Pip = O=C(O)[C@@H]1CCCCN1; X2 = O=C(c1cc(O)nc(O)n1)*; Aze = O=C(O)[C@@H]1CCN1

Tests used:
[1] = in vivo; design: species or system MCH (ICR) strain mice; details: male, MCH (ICR), mouse, iv; for half-life: Half-Time of the synthetic peptides in mice
Experimental: For the evaluation of stability, MCH (ICR) strain mice (male, body weight: 28-32 g) were used. […] After a certain period of time, blood was collected from the abdominal vein using an injection syringe treated with heparin. Immediately after the collection, the blood was centrifuged (1500 g, 3 minutes) at 4° C. and the supernatant was stored frozen at -20° C. Each of the supernatants was analyzed by reversed phase HPLC in the same manner as that in the aforementioned evaluation of stability in plasma.

[2] = system: platelet aggregation; experiment: intravenous injection in beagle, platelet aggregation of PRP measured over time; format: in vivo; details: 5 mg/Kg i.v.
Experimental: (1) In order to examine how long the peptides of the present invention and heparin, which is used as an anticoagulant at present, can remain without being broken down or eliminated and how long the activity of them persists, intravenous injection experiments were carried out using beagles.
Since the peptides of the present invention have the platelet aggregation-inhibiting activity, the amount of the peptides which remain in the body of an organism without being broken down can be determined by collecting blood and measuring the platelet aggregation-inhibiting activity of the blood at given intervals of time. Thus, the in vivo stability of the peptides can be estimated.
In the experiments, a male beagle having a body weight of 10 Kg was used. […] The collected blood was centrifuged at 1000 rpm for 10 minutes to prepare platelet-rich plasma (PRP). The reminder was further centrifuged at 3000 rpm for 15 minutes to prepare platelet-poor plasma (PPP).
The platelet aggregation ability was determined by measuring the platelet aggregation of the PRP with collagen and ADP using an aggregometer. In the measurement, ADP was added at a final concentration of 7.5 and 10.0 μM and collagen was added at a final concentration of 7.5 and 10.0 μg/ml.

[3] = stability of the synthetic peptides in human plasma; format: in vitro ADME; details: 37° C., peptide 100 μM; for half-life at 100 μM: male, read-out: Half-Time of the synthetic peptides in plasma
Experimental: The blood sample thus prepared was examined for the stability in whole blood. […] Then, the supernatant was collected to obtain a plasma fraction. This plasma fraction was examined for the stability in plasma.
The whole blood or plasma (225 μl) was placed in a test tube and heated to 37° C. Each of the synthetic peptides was dissolved in saline (pH 7.4) to prepare a solution at a concentration of 1 mM. Each of the synthetic peptide solutions was added to the whole blood or plasma in an amount of 25 μl (final concentration: 100 μM) and incubated for a certain period of time. After the incubation, the solution was cooled with ice to stop the degradation reaction. The plasma was stored frozen at -20° C. without performing any treatments. The whole blood was centrifuged at 2000 g for 5 minutes at 4° C. and the supernatant was stored frozen.
The samples were analyzed by reversed phase HPLC. The peak area of each synthetic peptide was calculated and the stability in the whole blood or plasma was evaluated from the change of the peak area.

[4] = system: human platelets; experiment: protection of human platelet fraction during storage; details: platelet fraction, enzymes present in plasma
Experimental: Immediately after the blood collection, the syringe was stirred gently to mix the blood with the sodium citrate solution. The mixed blood was centrifuged (1100 rpm, 250 g) at room temperature for 15 minutes and the rotation was stopped without applying the brake. Then, the supernatant was collected with a pipette to obtain a platelet fraction. The remaining blood was further centrifuged (3000 rpm, 1000 g). The supernatant was collected to obtain platelet-poor plasma and stored.
The platelet fraction was placed in a polypropylene test tube, which was capped with a membrane filter to ensure breathability. Then, the test tube was placed on a shaker and stored at room temperature while shaking through vibrational amplitude of 20 cm at a frequency of 2 Hz. All the operations were performed under aseptic conditions to prevent the proliferation of bacteria during the storage.
After the storage for a given period of time, an aliquot of the platelet fraction was sampled and the number of platelets was measured. Prostaglandin E1 (Sigma Co.) was added to give a final concentration of 20 μg/ml and centrifuged at 750 g for 10 minutes. The supernatant was removed and the remainder was washed twice with HEPES-Tyrode's buffer containing prostaglandin E1 to remove the protected peptide. Finally, the platelets were suspended in preliminarily stored platelet-poor plasma. After the incubation for a given period of time, the aggregation ability of the platelets was determined by the method described above.

[5] = system: blood coagulation; experiment: intravenous heparin in beagle, prothrombin time and activated partial thromboplastin time; format: in vivo; details: 200 U/Kg i.v.
Experimental: (2) Heparin, currently used as an anticoagulant, was used as a comparison with the peptides of the present invention.
Therefore, the in vivo stability of heparin was estimated by measuring the time-dependent change in the anticoagulation action which is the main action of heparin.
In the experiments, haparin as dissolved in saline was injected into the vein and blood was collected at given intervals of time to prepare PPP by the same method as that described in (1).
In the measurement of the anticoagulation action, the prepared PPP was used to measure prothrombin time, which is an indicator of blood coagulation activity in vitro, and activated partial thromboplastin time according to a conventional method. Each measurement was conducted under preincubation conditions at 37° C. for 3 minutes using AMELUNG KC-10A (Baxtor CO.). The rate of the disappearance of heparin from the body can be estimated by measuring the prolongations of the prothrombin time and the activated partial thromboplastin time (i.e., the prolongation of time up to coagulation) after the injection.

half-life [1] [min]	half-life at 100 μM [3] [min]	Half-Time of the synthetic peptides in plasma [3]	Molecule	also measured
	≥ 240		N=C(N)NCCC[C@H](NC(=O)[C@H](CO)NC(=O)[C@@H]1CCC(=O)N1)C(=O)NCC(=O)N[C@@H](CC(=O)O)C(=O)N[C@@H](Cc1c[nH]c2ccccc12)C(=O)O [Example 11, Pyroglutamyl--Ser--Arg--Gly--Asp--Trp--OH] ([pGlu]SRGDW-OH)	
3.3	49		N=C(N)NCCC[C@H](NC(=O)[C@H](CO)NC(=O)[C@@H]1CCN1)C(=O)NCC(=O)N[C@@H](CC(=O)O)C(=O)N[C@@H](Cc1c[nH]c2ccccc12)C(=O)O [Example 17, (L-2-Azetidinecarboxyl)--Ser--Arg--Gly--Asp--Trp--OH] (H-[Aze]SRGDW-OH)	
3.3	≥ 120	at least 120 minutes	N=C(N)NCCC[C@H](NC(=O)[C@H](CO)NC(=O)[C@@H]1CCCCN1)C(=O)NCC(=O)N[C@@H](CC(=O)O)C(=O)N[C@@H](Cc1c[nH]c2ccccc12)C(=O)O [Example 18, (L-Pipecolinyl)--Ser--Arg--Gly--Asp--Trp--OH] (H-[Pip]SRGDW-OH)	
			N=C(N)NCCC[C@H](N)C(=O)NCC(=O)N[C@@H](CC(=O)O)C(=O)N[C@@H](Cc1ccccc1)C(=O)O [RGDF, reference compound] (H-RGDF-OH)	stability when added to a platelet fraction [4]: broken down in several hours
≤ 2	74.5	74.5 min	PSRGDW-OH [Example 16, Pro--Ser--Arg--Gly--Asp--Trp--OH]	
≤ 2	11.5	11.5 min	WSRGDW-OH [Example 1, Trp--Ser--Arg--Gly--Asp--Trp--OH]	
			heparin	activated partial thromboplastin time [5]: The same results were obtained; time to completely recover prothrombin time to the level before injection [5]: 2 to 3 h

Molecule	half-life [1] [min]	half-life at 100 μM [3] [min]	Half-Time of the synthetic peptides in plasma [3]	also measured
N=C(N)NCCC[C@H](NC(=O)[C@H](CO)NC(=O)c1cc(O)nc(O)n1)C(=O)NCC(=O)N[C@@H](CC(=O)O)C(=O)N[C@@H](Cc1c[nH]c2ccccc12)C(=O)O [Example 9, Orotyl--Ser--Arg--Gly--Asp--Trp--OH] (X2-SRGDW-OH)	10.1	≥ 240		Half-Time of the synthetic peptides in mice [1]: 6.9 min; time within which the peptide was broken down in the body or eliminated from the kidney [2]: ≤ 60 min
